Laboratory results published in patent US20080227730A1, “9A-Carbamoyl and Thiocarbamoyl Azalides With Antimalarial Activity” (GLAXOSMITHKLINE ISTRAZIVACKI CENTAR ZAGREB D.O.O., priority 2005, published 2008).
≈ marks a conversion by molar mass, not a printed value.

How the values were obtained:
[1] = tested on: Plasmodium falciparum TM91C235; assay: In vitro antimalarial [3H]-hypoxanthine incorporation assay, strain TM91C235; assay type: cell-based; settings: P. falciparum TM91C235 (multiple drug resistant isolate from Thailand), parasites exposed for 72 hours, azithromycin value averaged
Description: (§1) The in vitro screens for intrinsic antimalarial activity were based on modifications of the procedures described by Desjardins R E, Canfield C J, Haynes J D, Chulay J D. (Quantitative assessment of antimalarial activity in vitro by a semiautomated microdilution technique. Antimicrob Agents Chemother. 1979 December; 16(6):710-8.), Chulay J D, Haynes J D, Diggs C L. (Plasmodium falciparum: Assessment of in vitro growth by [3H]hypoxanthine incorporation. Exp. Parasitol. 1983 55:138-146.), and Milhous W N, Weatherly N F, Bowdre J H, Desjardins R E. (In vitro activities of and mechanisms of resistance to antifol antimalarial drugs. Antimicrob Agents Chemother. 1985 April; 27(4):525-30.). The system was limited to the assessment of the intrinsic activity against the erythrocytic asexual life cycle (blood schizontocides). Two Plasmodium falciparum clones from CDC/Indochina III (W-2) and CDC/Sierra Leone I (D-6) (Oduola A M, Weatherly N F, Bowdre J H, Desjardins R E. Plasmodium falciparum: cloning by single-erythrocyte micromanipulation and heterogeneity in vitro. Exp Parasitol. 1988 66(1):86-95.) were used for all assays. TM91C235, a multiple drug resistant isolate from Thailand, was used for the prescreening assay. W-2 is resistant to chloroquine, quinine, and pyrimethamine and susceptible to mefloquine. D-6 tends to be more resistant to mefloquine and susceptible to chloroquine, quinine, and pyrimethamine. All documents cited in this paragraph are incorporated by reference in their entirety.
(§2) All parasites were maintained in continuous long term cultures in RPMI-1640 medium supplemented with 6% washed human A positive (A+)(erythrocytes, 25 mM Hepes, […], and 10% heat inactivated A+ human plasma or ALBUMAX® (lipid-rich bovine serum albumin; Invitrogen, Carlsbad, Calif.). All cultures and assays were conducted at 37° C. under an atmosphere of 5% CO2 and 5% O2, with a balance of N2.
(§3) The prescreening assay uses TM91C235 diluted at a 0.4% parasitemia in a 1% hematocrit in folic acid free and p-aminobenzoic acid free media RPMI-1640 and ALBUMAX®. One mg of the compound is typically dissolved in 100 μl of dimethyl sulfoxide (DMSO). The compound is further diluted in culture medium (FF) with ALBUMAX® for the first initial starting concentration. The rest of the stock drug solution was kept at −70° C. The isolate was preexposed, in duplicate, at three concentrations (25,000 ng/ml, 2,500 ng/ml, and 25 ng/ml) of the test compound for 48 hr in a 96-well microtiter plate (MTP) using the BIOMEK® 2000 automated laboratory workstation. Each MTP contains chloroquine as control to assess the relative activity of the compound and to monitor the response of TM91C235.
(§4) After the preincubation, [^3H]-hypoxanthine was added to each well of the MTP. (The assay relies on the incorporation of radiolabeled hypoxanthine by the parasites, which indicates reproduction, and inhibition of isotope incorporation was attributed to activity of known or candidate antimalarial drugs). After 72 hr of total incubation time, the MTP were frozen to lyse the erythrocytes and parasites. The parasite DNA was recovered by harvesting the lysate onto glass-fiber filter plates using a Packard FilterMate™ Cell Harvester. The radioactivity was counted on a Packard TopCount™ microplate scintillation counter. The results were recorded as counts per minutes (CPM) per well at each drug concentration divided by the arithmetic mean of the CPM from the three untreated infection parasite control wells.
(§5) The serial dilution assay was conducted using the same assay conditions and stock solution of the compound used for the preliminary screen, described above. Both the D-6 and the W-2 clones were used. The compounds were diluted two-fold over 11 different concentration ranges with a starting concentration that was based on the preliminary screen. […]

[2] = tested on: Plasmodium falciparum D-6 (CDC/Sierra Leone I); assay: In vitro antimalarial [3H]-hypoxanthine incorporation serial dilution assay, clone D6; assay type: cell-based; settings: P. falciparum D6 clone, parasites exposed for 72 hours, azithromycin value averaged
Description: as §1, §2, §3, §4, §5

[3] = tested on: Plasmodium falciparum W-2 (CDC/Indochina III); assay: In vitro antimalarial [3H]-hypoxanthine incorporation serial dilution assay, clone W2; assay type: cell-based; settings: P. falciparum W2 clone, parasites exposed for 72 hours, azithromycin value averaged
Description: as §1, §2, §3, §4, §5

Plasinodium falciparum = settings: non-immune patients, Plasmodium falciparum, as compared to controls; cited from earlier work
Plasmodium vivax = settings: non-immune patients, as compared to controls; cited from earlier work
Plasmodium cynomolgi = settings: rhesus monkey; cited from earlier work
Plasmodium berghei = settings: cited from earlier work
[4] = tested on: Plasmodium yoelii nigeriensis; settings: cited from earlier work

Molecule | IC50 [1] [µg/mL] | IC50 [2] [µg/mL] | IC50 [3] [µg/mL] | prophylactic efficacy (Plasinodium falciparum) [%] | prophylactic efficacy (Plasmodium vivax) [%] | efficacy in monkey model (Plasmodium cynomolgi) | activity in mouse model (Plasmodium berghei) | activity in mouse model [4]
CC[C@H]1OC(=O)[C@H](C)[C@@H](O[C@H]2C[C@@](C)(OC)[C@@H](O)[C@H](C)O2)[C@H](C)[C@@H](O[C@@H]2O[C@H](C)C[C@H](N(C)C)[C@H]2O)[C@](C)(O)C[C@@H](C)CN(C(=O)Nc2ccc(S(=O)(=O)Nc3ccccc3)cc2)[C@H](C)[C@@H](O)[C@]1(C)O [Compound 1] | 0.299 (≈ 0.296 µM) | 0.428 (≈ 0.424 µM) | 0.448 (≈ 0.444 µM) |  |  |  |  | 
CC[C@H]1OC(=O)[C@H](C)[C@@H](O[C@H]2C[C@@](C)(OC)[C@@H](O)[C@H](C)O2)[C@H](C)[C@@H](O[C@@H]2O[C@H](C)C[C@H](N(C)C)[C@H]2O)[C@](C)(O)C[C@@H](C)CN(C(=O)Nc2ccc(S(=O)(=O)Nc3ccccn3)cc2)[C@H](C)[C@@H](O)[C@]1(C)O [Compound 2] | 1.03 (≈ 1.02 µM) | 0.251 (≈ 0.248 µM) | > 1.76 |  |  |  |  | 
CC[C@H]1OC(=O)[C@H](C)[C@@H](O[C@H]2C[C@@](C)(OC)[C@@H](O)[C@H](C)O2)[C@H](C)[C@@H](O[C@@H]2O[C@H](C)C[C@H](N(C)C)[C@H]2O)[C@](C)(O)C[C@@H](C)CN(C(=O)NS(=O)(=O)c2ccccc2Cl)[C@H](C)[C@@H](O)[C@]1(C)O [Compound 3] | > 1.62 | 1.11 (≈ 1.17 µM) | 1.43 (≈ 1.5 µM) |  |  |  |  | 
CC[C@H]1OC(=O)[C@H](C)[C@@H](O[C@H]2C[C@@](C)(OC)[C@@H](O)[C@H](C)O2)[C@H](C)[C@@H](O[C@@H]2O[C@H](C)C[C@H](N(C)C)[C@H]2O)[C@](C)(O)C[C@@H](C)CN(C(=O)Nc2ccc(S(=O)(=O)Nc3cc(C)on3)cc2)[C@H](C)[C@@H](O)[C@]1(C)O [Compound 4] | > 1.62 | 0.12 (≈ 0.118 µM) | 1.59 (≈ 1.57 µM) |  |  |  |  | 
CC[C@H]1OC(=O)[C@H](C)[C@@H](O)[C@H](C)[C@@H](O[C@@H]2O[C@H](C)C[C@H](N(C)C)[C@H]2O)[C@](C)(O)C[C@@H](C)CN(C(=O)Nc2ccc(S(=O)(=O)Nc3cc(C)on3)cc2)[C@H](C)[C@@H](O)[C@]1(C)O [Compound 5] | > 1.62 | 0.0523 (≈ 0.0611 µM) | > 1.76 |  |  |  |  | 
CC[C@H]1OC(=O)[C@H](C)[C@@H](O)[C@H](C)[C@@H](O[C@@H]2O[C@H](C)C[C@H](N(C)C)[C@H]2O)[C@](C)(O)C[C@@H](C)CN(C(=O)Nc2ccc(S(=O)(=O)Nc3ccccn3)cc2)[C@H](C)[C@@H](O)[C@]1(C)O [Compound 6] | > 1.62 | 0.0908 (≈ 0.107 µM) | > 1.76 |  |  |  |  | 
CC[C@H]1OC(=O)[C@H](C)[C@@H](O[C@H]2C[C@@](C)(OC)[C@@H](O)[C@H](C)O2)[C@H](C)[C@@H](O[C@@H]2O[C@H](C)C[C@H](N(C)C)[C@H]2O)[C@](C)(O)C[C@@H](C)CN(C(=O)Nc2cccc(Cl)c2)[C@H](C)[C@@H](O)[C@]1(C)O [Compound 7] |  | 0.583 (≈ 0.656 µM) | 1.22 (≈ 1.37 µM) |  |  |  |  | 
CC[C@H]1OC(=O)[C@H](C)[C@@H](O[C@H]2C[C@@](C)(OC)[C@@H](O)[C@H](C)O2)[C@H](C)[C@@H](O[C@@H]2O[C@H](C)C[C@H](N(C)C)[C@H]2O)[C@](C)(O)C[C@@H](C)CN(C(=O)Nc2cccc3ccccc23)[C@H](C)[C@@H](O)[C@]1(C)O [Compound 8] | 0.712 (≈ 0.788 µM) | 0.751 (≈ 0.831 µM) | 1.9 (≈ 2.11 µM) |  |  |  |  | 
CC[C@H]1OC(=O)[C@H](C)[C@@H](O[C@H]2C[C@@](C)(OC)[C@@H](O)[C@H](C)O2)[C@H](C)[C@@H](O[C@@H]2O[C@H](C)C[C@H](N(C)C)[C@H]2O)[C@](C)(O)C[C@@H](C)CN(C(=S)Nc2cccc(Cl)c2)[C@H](C)[C@@H](O)[C@]1(C)O [Compound 9] |  | 0.762 (≈ 0.843 µM) | 1.5 (≈ 1.66 µM) |  |  |  |  | 
CC[C@H]1OC(=O)[C@H](C)[C@@H](O[C@H]2C[C@@](C)(OC)[C@@H](O)[C@H](C)O2)[C@H](C)[C@@H](O[C@@H]2O[C@H](C)C[C@H](N(C)C)[C@H]2OC(C)=O)[C@](C)(O)C[C@@H](C)CN(C(=O)NC(C)C)[C@H](C)[C@@H](O)[C@]1(C)O [Compound 10] | 0.353 (≈ 0.41 µM) | > 0.797 | > 1.76 |  |  |  |  | 
CC[C@H]1OC(=O)[C@H](C)[C@@H](O[C@H]2C[C@@](C)(OC)[C@@H](O)[C@H](C)O2)[C@H](C)[C@@H](O[C@@H]2O[C@H](C)C[C@H](N(C)C)[C@H]2O)[C@](C)(O)C[C@@H](C)CN(C(=S)NCc2ccccc2)[C@H](C)[C@@H](O)[C@]1(C)O [Compound 11] | 0.304 (≈ 0.344 µM) | 0.253 (≈ 0.286 µM) | 0.386 (≈ 0.436 µM) |  |  |  |  | 
CC[C@H]1OC(=O)[C@H](C)[C@@H](O[C@H]2C[C@@](C)(OC)[C@@H](O)[C@H](C)O2)[C@H](C)[C@@H](O[C@@H]2O[C@H](C)C[C@H](N(C)C)[C@H]2O)[C@](C)(O)C[C@@H](C)CN(C)[C@H](C)[C@@H](O)[C@]1(C)O [azithromycin] |  |  |  | 71.6 | 98.9 | active |  | 
midecamycinin |  |  |  |  |  | no efficacy | active | active
